Patent publication US9120770B2, “Substituted pyridine and pyrazine compounds as PDE4 inhibitors” (DART NEUROSCIENCE (CAYMAN) LTD., priority 2013, dated 2015)

The molecules below were run against PDE4D3 (Homo sapiens, UniProt Q08499).
Sequence of PDE4D3 (Q08499 1-673 isoform Q08499-2): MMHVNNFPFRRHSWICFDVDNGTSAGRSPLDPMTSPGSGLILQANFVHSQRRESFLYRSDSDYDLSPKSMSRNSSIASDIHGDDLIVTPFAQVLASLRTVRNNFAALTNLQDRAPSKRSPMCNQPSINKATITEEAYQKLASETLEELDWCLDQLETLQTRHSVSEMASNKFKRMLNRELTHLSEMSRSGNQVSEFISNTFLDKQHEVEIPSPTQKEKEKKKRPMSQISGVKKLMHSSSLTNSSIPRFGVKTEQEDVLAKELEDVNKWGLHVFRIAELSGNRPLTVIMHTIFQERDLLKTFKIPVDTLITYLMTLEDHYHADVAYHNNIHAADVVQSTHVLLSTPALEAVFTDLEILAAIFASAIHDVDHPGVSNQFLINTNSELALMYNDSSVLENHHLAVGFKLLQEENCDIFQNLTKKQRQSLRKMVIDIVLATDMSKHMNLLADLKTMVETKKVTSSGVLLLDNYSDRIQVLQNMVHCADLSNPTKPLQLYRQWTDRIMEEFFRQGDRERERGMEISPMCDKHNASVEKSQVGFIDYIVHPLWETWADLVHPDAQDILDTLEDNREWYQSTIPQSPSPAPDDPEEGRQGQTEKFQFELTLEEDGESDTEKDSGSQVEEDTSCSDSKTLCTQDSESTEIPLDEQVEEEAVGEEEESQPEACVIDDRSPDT

Row | EC50 [nM] | SMILES
1 | 1000 to 10000 | COc1ncc(Cn2cc(C)cn2)nc1-c1cccc(Cl)c1 [Example 184, 3-(3-Chlorophenyl)-2-methoxy-5-[(4-methyl-1H-pyrazol-1-yl)methyl]pyrazine]
2 | 100 to 1000 | COc1ncc(Cc2cnc(NC3CC3)nc2)nc1-c1cccc(Cl)c1 [Example 57, 5-{[6-(3-Chlorophenyl)-5-methoxypyrazin-2-yl]methyl}-N-cyclopropylpyrimidin-2-amine]
3 | 100 to 1000 | COc1ncc(Cn2cncn2)cc1-c1cccc(OC(F)(F)F)c1 [Example 137, 2-Methoxy-5-(1H-1,2,4-triazol-1-ylmethyl)-3-[3-(trifluoromethoxy)phenyl]pyridine]
4 | 100 to 1000 | COc1ncc(Cn2cncn2)cc1-c1ccnc(C)c1 [Example 7, 2-Methoxy-3-(2-methylpyridin-4-yl)-5-(1H-1,2,4-triazol-1-ylmethyl)pyridine]
5 | < 100 | COc1ncc(Cn2ccc(CO)n2)cc1-c1cccc(OC(F)F)c1 [Example 275, [1-({5-[3-(Difluoromethoxy)phenyl]-6-methoxypyridin-3-yl}methyl)-1H-pyrazol-3-yl]methanol]
6 | 100 to 1000 | COc1ncc(Cc2ccc(C(=O)O)cc2)cc1-c1cccc(Cl)c1 [Example 21, 4-{[5-(3-Chlorophenyl)-6-methoxypyridin-3-yl]methyl}benzoic acid]
7 | 1000 to 10000 | CCOc1ncc(Cn2cnc(CF)n2)nc1-c1cccc(OC(F)F)c1 [Example 257, 3-[3-(Difluoromethoxy)phenyl]-2-ethoxy-5-{[3-(fluoromethyl)-1H-1,2,4-triazol-1-yl]methyl}pyrazine]
8 | < 100 | COc1ncc(Cn2ccnc2)cc1-c1cccc(Cl)c1 [Example 173, 3-(3-Chlorophenyl)-5-(1H-imidazol-1-ylmethyl)-2-methoxypyridine]
9 | 100 to 1000 | COc1ncc(Cn2cnc(C(F)(F)F)n2)cc1-c1cccc(OC(F)F)c1 [Example 159, 3-[3-(Difluoromethoxy)phenyl]-2-methoxy-5-{[3-(trifluoromethyl)-1H-1,2,4-triazol-1-yl]methyl}pyridine]
10 | < 100 | COc1ncc(Cc2cnoc2)nc1-c1cccc(Cl)c1 [Example 95, 3-(3-Chlorophenyl)-2-methoxy-5-(1,2-oxazol-4-ylmethyl)pyrazine]
11 | 1000 to 10000 | COc1ncc(Cc2ccc(C(=O)NC3COC3)cc2)cc1-c1cccc(Cl)c1 [Example 243, 4-{[5-(3-Chlorophenyl)-6-methoxypyridin-3-yl]methyl}-N-(oxetan-3-yl)benzamide]
12 | 100 to 1000 | COc1ncc(C(O)c2ccc(F)cc2)cc1-c1cccc(Cl)c1 (stereo not drawn) [Example 14, [5-(3-Chlorophenyl)-6-methoxypyridin-3-yl](4-fluorophenyl)methanol]
13 | < 100 | CCOc1ncc(Cn2cnc(CO)n2)cc1-c1ccnc(OC(F)F)c1 [Example 206, [1-({5-[2-(Difluoromethoxy)pyridin-4-yl]-6-ethoxypyridin-3-yl}methyl)-1H-1,2,4-triazol-3-yl]methanol]
14 | 100 to 1000 | COc1ncc(Cn2cncn2)cc1-c1cccc(C)c1 [Example 5, 2-Methoxy-3-(3-methylphenyl)-5-(1H-1,2,4-triazol-1-ylmethyl)pyridine]
15 | 1000 to 10000 | CCOC(=O)c1cnn(Cc2cnc(OC)c(-c3cccc(Cl)c3)c2)c1 [Example 169, Ethyl 1-{[5-(3-chlorophenyl)-6-methoxypyridin-3-yl]methyl}-1H-pyrazole-4-carboxylate]
16 | 100 to 1000 | COc1ncc(Cn2cc(CO)nn2)nc1-c1cccc(OC(F)F)c1 [Example 267, [1-({6-[3-(Difluoromethoxy)phenyl]-5-methoxypyrazin-2-yl}methyl)-1H-1,2,3-triazol-4-yl]methanol]
17 | < 100 | CCOc1ncc(Cn2ncnc2C(F)(F)F)cc1-c1cccc(Cl)c1 [Example 153, 3-(3-Chlorophenyl)-2-ethoxy-5-{[5-(trifluoromethyl)-1H-1,2,4-triazol-1-yl]methyl}pyridine]
18 | < 100 | COc1ncc(Cn2cc(CO)cn2)cc1-c1cccc(OC(F)F)c1 [Example 272, [1-({5-[3-(Difluoromethoxy)phenyl]-6-methoxypyridin-3-yl}methyl)-1H-pyrazol-4-yl]methanol]
19 | < 100 | CCOc1ncc(Cc2cnc(N)nc2)nc1-c1cccc(OC(F)F)c1 [Example 104, 5-({6-[3-(Difluoromethoxy)phenyl]-5-ethoxypyrazin-2-yl}methyl)pyrimidin-2-amine]
20 | > 10000 | COc1ncc(Cc2cnc(C#N)nc2)nc1-c1cccc(Cl)c1 [Example 22, 5-{[6-(3-Chlorophenyl)-5-methoxypyrazin-2-yl]methyl}pyrimidine-2-carbonitrile]
21 | 100 to 1000 | COc1cccc(-c2cc(Cn3cnc(N)n3)cnc2OC(F)F)c1 [Example 227, 1-{[6-(Difluoromethoxy)-5-(3-methoxyphenyl)pyridin-3-yl]methyl}-1H-1,2,4-triazol-3-amine]
22 | 100 to 1000 | COc1ncc(Cc2ccc(C(N)=O)cc2)nc1-c1cccc(Cl)c1 [Example 113, 4-{[6-(3-Chlorophenyl)-5-methoxypyrazin-2-yl]methyl}benzamide]
23 | < 100 | COc1ncc(Cc2ccc(N)nc2)cc1-c1cccc(Cl)c1 [Example 30, 5-{[5-(3-Chlorophenyl)-6-methoxypyridin-3-yl]methyl}pyridin-2-amine]

Row | EC50 [nM] | SMILES
24 | 100 to 1000 | COc1ncc(Cc2ccc(NC(N)=O)cc2)cc1-c1cccc(Cl)c1 [Example 26, (4-{[5-(3-Chlorophenyl)-6-methoxypyridin-3-yl]methyl}phenyl)urea]
25 | 100 to 1000 | COc1ncc(Cn2nccc2N)cc1-c1cccc(OC(F)F)c1 [Example 233, 1-({5-[3-(Difluoromethoxy)phenyl]-6-methoxypyridin-3-yl}methyl)-1H-pyrazol-5-amine]
26 | 100 to 1000 | COc1ncc(Cn2cc(C(N)=O)cn2)cc1-c1cccc(Cl)c1 [Example 271, 1-{[5-(3-Chlorophenyl)-6-methoxypyridin-3-yl]methyl}-1H-pyrazole-4-carboxamide]
27 | < 100 | CCOc1ncc(Cn2cnc(N)n2)cc1-c1cccc(OC(F)F)c1 [Example 226, 1-({5-[3-(Difluoromethoxy)phenyl]-6-ethoxypyridin-3-yl}methyl)-1H-1,2,4-triazol-3-amine]
28 | 100 to 1000 | FC(F)Oc1ncc(Cc2cnoc2)cc1-c1cccc(Cl)c1 [Example 97, 3-(3-Chlorophenyl)-2-(difluoromethoxy)-5-(1,2-oxazol-4-ylmethyl)pyridine]
29 | 100 to 1000 | COc1ncc(Cn2cncn2)cc1-c1ccncc1 [Example 171, 2-Methoxy-3-(pyridin-4-yl)-5-(1H-1,2,4-triazol-1-ylmethyl)pyridine]
30 | 1000 to 10000 | COc1ncc(Cn2cnc(CO)n2)nc1-c1cccc(Cl)c1 [Example 199, (1-{[6-(3-Chlorophenyl)-5-methoxypyrazin-2-yl]methyl}-1H-1,2,4-triazol-3-yl)methanol]
31 | > 10000 | COc1ncc(Cn2cncn2)cc1-c1cccc(S(C)(=O)=O)c1 [Example 9, 3-(3-Methanesulfonylphenyl)-2-methoxy-5-(1H-1,2,4-triazol-1-ylmethyl)pyridine]
32 | 100 to 1000 | FC(F)Oc1ncc(Cc2cnc(NCC(F)(F)F)nc2)cc1-c1cccc(Cl)c1 [Example 94, 5-{[5-(3-Chlorophenyl)-6-(difluoromethoxy)pyridin-3-yl]methyl}-N-(2,2,2-trifluoroethyl)pyrimidin-2-amine]
33 | 100 to 1000 | COc1ncn(Cc2cnc(OC(F)F)c(-c3cccc(Cl)c3)c2)n1 [Example 214, 3-(3-Chlorophenyl)-2-(difluoromethoxy)-5-[(3-methoxy-1H-1,2,4-triazol-1-yl)methyl]pyridine]
34 | < 100 | COc1ncc(Cn2cnc(C)n2)cc1-c1cccc(OC(F)F)c1 [Example 155, 3-[3-(Difluoromethoxy)phenyl]-2-methoxy-5-[(3-methyl-1H-1,2,4-triazol-1-yl)methyl]pyridine]
35 | < 100 | COc1ncc(Cn2cnc(CF)n2)cc1-c1cccc(OC(F)F)c1 [Example 253, 3-[3-(Difluoromethoxy)phenyl]-5-{[3-(fluoromethyl)-1H-1,2,4-triazol-1-yl]methyl}-2-methoxypyridine]
36 | < 100 | CCOc1ncc(Cc2cnc(C(N)=O)nc2)nc1-c1cccc(OC(F)F)c1 [Example 13, 5-({6-[3-(Difluoromethoxy)phenyl]-5-ethoxypyrazin-2-yl}methyl)pyrimidine-2-carboxamide]
37 | < 100 | COc1ncc(Cn2cnc(C(F)F)n2)cc1-c1ccnc(OC(F)F)c1 [Example 261, 3-[2-(Difluoromethoxy)pyridin-4-yl]-5-{[3-(difluoromethyl)-1H-1,2,4-triazol-1-yl]methyl}-2-methoxypyridine]
38 | < 100 | COc1ncc(Cc2cn[nH]c2)cc1-c1cccc(Cl)c1 [Example 80, 3-(3-Chlorophenyl)-2-methoxy-5-(1H-pyrazol-4-ylmethyl)pyridine]
39 | < 100 | FC(F)Oc1ncc(Cc2cn[nH]c2)cc1-c1cccc(Cl)c1 [Example 28, 5-((1H-Pyrazol-4-yl)methyl)-3-(3-chlorophenyl)-2-(difluoromethoxy)pyridine]
40 | 100 to 1000 | COc1ncc(Cc2cnc(C(N)=O)nc2)cc1-c1cccc(Cl)c1 [Example 24, 5-{[5-(3-Chlorophenyl)-6-methoxypyridin-3-yl]methyl}pyrimidine-2-carboxamide]
41 | < 100 | FC(F)Oc1ncc(Cc2cncs2)cc1-c1cccc(Cl)c1 [Example 68, 3-(3-Chlorophenyl)-2-(difluoromethoxy)-5-(1,3-thiazol-5-ylmethyl)pyridine]
42 | 1000 to 10000 | COc1ncc(Cn2cncn2)cc1-c1cccc(CO)c1 [Example 8, {3-[2-Methoxy-5-(1H-1,2,4-triazol-1-ylmethyl)pyridin-3-yl]phenyl}methanol]
43 | < 100 | COc1ncc(Cc2cnc(C(N)=O)nc2)nc1-c1cccc(Cl)c1 [Example 123, 5-{[6-(3-Chlorophenyl)-5-methoxypyrazin-2-yl]methyl}pyrimidine-2-carboxamide]
44 | 1000 to 10000 | COc1ncc(C(O)c2ccc(F)cn2)cc1-c1cccc(Cl)c1 (stereo not drawn) [Example 16, [5-(3-Chlorophenyl)-6-methoxypyridin-3-yl](5-fluoropyridin-2-yl)methanol]
45 | 100 to 1000 | COc1ncc(Cn2cncn2)cc1-c1cc(F)cc(F)c1 [Example 139, 3-(3,5-Difluorophenyl)-2-methoxy-5-(1H-1,2,4-triazol-1-ylmethyl)pyridine]
